SMILES strings stand for the structures.

As a reminder, the EC50 is the concentration that produces a half-maximal response.

In the experiment the target is MALT1 (Homo sapiens (Human), UniProt Q9UDY8). The experiment is described as follows: MALT1 enzymatic activity inhibition (fluorescence, Ac-LRSR-AMC substrate). It is filed as biochemical. The following applies: recombinant MALT1 1.5 ng/μl, Ac-LRSR-AMC 1 μM. An outline of the steps: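 Recombinant human MALT1 (1.5 ng/μl final) preincubated 10 min at rt with compounds in 50 mM HEPES pH 7.2-7.4, 100 mM NaCl, 900 mM sodium citrate, 10 mM DTT; 1 μM Ac-LRSR-AMC then added. AMC fluorescence read at start and after 30 min 37 °C plus 30 min rt; difference gives signal, % inhibition fitted to IC50.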
MALT1, sequence (Q9UDY8 whole entry): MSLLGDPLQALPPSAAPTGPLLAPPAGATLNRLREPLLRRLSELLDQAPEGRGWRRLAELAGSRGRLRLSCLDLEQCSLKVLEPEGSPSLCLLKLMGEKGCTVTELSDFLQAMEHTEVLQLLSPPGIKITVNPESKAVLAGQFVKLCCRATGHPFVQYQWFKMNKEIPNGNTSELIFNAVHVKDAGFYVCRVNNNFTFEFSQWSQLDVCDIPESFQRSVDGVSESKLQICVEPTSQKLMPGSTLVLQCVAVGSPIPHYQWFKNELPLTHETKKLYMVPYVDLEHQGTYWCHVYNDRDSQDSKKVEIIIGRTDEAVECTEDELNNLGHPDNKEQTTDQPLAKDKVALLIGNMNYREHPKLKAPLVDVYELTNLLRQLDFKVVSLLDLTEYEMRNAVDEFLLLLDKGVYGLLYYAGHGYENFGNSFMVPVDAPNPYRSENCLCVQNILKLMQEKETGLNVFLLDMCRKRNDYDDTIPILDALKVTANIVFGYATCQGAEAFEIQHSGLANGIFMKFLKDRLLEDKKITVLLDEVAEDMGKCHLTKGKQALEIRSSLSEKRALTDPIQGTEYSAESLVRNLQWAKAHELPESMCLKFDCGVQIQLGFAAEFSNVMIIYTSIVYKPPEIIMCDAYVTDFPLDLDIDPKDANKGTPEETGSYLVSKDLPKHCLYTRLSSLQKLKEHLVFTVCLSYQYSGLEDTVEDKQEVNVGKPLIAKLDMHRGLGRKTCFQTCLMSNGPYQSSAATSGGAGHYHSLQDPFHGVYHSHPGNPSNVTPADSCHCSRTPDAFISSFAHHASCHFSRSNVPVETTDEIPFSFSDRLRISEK
Consider `CC(C)c1c(NC(=O)Nc2ccc(-c3nnc(CCCCCCN4CCN(c5ccc6c(c5)CN(C5CCC(=O)NC5=O)C6=O)CC4)s3)nc2)cnc2ccnn12` (stereo not drawn) [Compound 142, 1-[6-[5-[6-[4-[2-(2,6-dioxo-3-piperidyl)-1-oxo-isoindolin-5-yl]piperazin-1-yl]hexyl]-1,3,4-thiadiazol-2-yl]-3-pyridyl]-3-(7-isopropylpyrazolo[1,5-a]pyrimidin-6-yl)urea], for which the EC50 lay in the range of 1 to 5 µM.

On to `O=C1CCC(N2Cc3cc(N4CCN(CCCCCCc5nnc(-c6ccc(NC(=O)Nc7cnc8ccnn8c7C7CCCC7)cn6)s5)CC4)ccc3C2=O)C(=O)N1` (stereo not drawn) [Compound 143, 1-(7-cyclopentylpyrazolo[1,5-a]pyrimidin-6-yl)-3-[6-[5-[6-[4-[2-(2,6-dioxo-3-piperidyl)-1-oxo-isoindolin-5-yl]piperazin-1-yl]hexyl]-1,3,4-thiadiazol-2-yl]-3-pyridyl]urea], for which the EC50 is 1 to 5 µM. `Cc1cc(NC(=O)Nc2cnc3ccnn3c2C(C)C)cnc1-c1noc(CCCC(=O)N2CCN(c3ccc4c(c3)CN(C3CCC(=O)N(C)C3=O)C4=O)CC2)n1` (stereo not drawn) [Compound 144, 1-(7-isopropylpyrazolo[1,5-a]pyrimidin-6-yl)-3-[5-methyl-6-[5-[4-[4-[2-(1-methyl-2,6-dioxo-3-piperidyl)-1-oxo-isoindolin-5-yl]piperazin-1-yl]-4-oxo-butyl]-1,2,4-oxadiazol-3-yl]-3-pyridyl]urea]: the EC50 was ≤ 0.2 µM. As to `Cc1cc(NC(=O)Nc2cnc3ccnn3c2C(C)C)cnc1-c1noc(CCCCC(=O)N2CCN(c3ccc4c(c3)CN(C3CCC(=O)N(C)C3=O)C4=O)CC2)n1` (stereo not drawn) [Compound 145, 1-(7-isopropylpyrazolo[1,5-a]pyrimidin-6-yl)-3-[5-methyl-6-[5-[5-[4-[2-(1-methyl-2,6-dioxo-3-piperidyl)-1-oxo-isoindolin-5-yl]piperazin-1-yl]-5-oxo-pentyl]-1,2,4-oxadiazol-3-yl]-3-pyridyl]urea], the EC50 is ≤ 0.2 µM. Turning to `Cc1cc(NC(=O)Nc2cnc3ccnn3c2C(C)C)cnc1-c1noc(CCCCCC(=O)N2CCN(c3ccc4c(c3)CN(C3CCC(=O)N(C)C3=O)C4=O)CC2)n1` (stereo not drawn) [Compound 146, 1-(7-isopropylpyrazolo[1,5-a]pyrimidin-6-yl)-3-[5-methyl-6-[5-[6-[4-[2-(1-methyl-2,6-dioxo-3-piperidyl)-1-oxo-isoindolin-5-yl]piperazin-1-yl]-6-oxo-hexyl]-1,2,4-oxadiazol-3-yl]-3-pyridyl]urea], the EC50 was ≤ 0.2 µM.

For `CCCCOP(=O)(OCCCC)OCN1C(=O)CCC(N2Cc3cc(N4CCN(C(=O)CCCCc5nc(-c6ncc(NC(=O)Nc7cnc8ccnn8c7C(C)C)cc6C)no5)CC4)ccc3C2=O)C1=O` (stereo not drawn) [Compound 147, dibutyl [3-[5-[4-[5-[3-[5-[(7-isopropylpyrazolo[1,5-a]pyrimidin-6-yl)carbamoylamino]-3-methyl-2-pyridyl]-1,2,4-oxadiazol-5-yl]pentanoyl]piperazin-1-yl]-1-oxo-isoindolin-2-yl]-2,6-dioxo-1-piperidyl]methyl phosphate], the EC50 is ≤ 0.2 µM. Turning to `CCCCOP(=O)(OCCCC)OCN1C(=O)CCC(N2Cc3cc(N4CCN(C(=O)CCCCCc5nc(-c6ncc(NC(=O)Nc7cnc8ccnn8c7C(C)C)cc6C)no5)CC4)ccc3C2=O)C1=O` (stereo not drawn) [Compound 148, dibutyl [3-[5-[4-[6-[3-[5-[(7-isopropylpyrazolo[1,5-a]pyrimidin-6-yl)carbamoylamino]-3-methyl-2-pyridyl]-1,2,4-oxadiazol-5-yl]hexanoyl]piperazin-1-yl]-1-oxo-isoindolin-2-yl]-2,6-dioxo-1-piperidyl]methyl phosphate], the EC50 lay within 0.5 to 1 µM. In the case of `Cc1cc(NC(=O)Nc2cnc3ccnn3c2C(C)C)cnc1-c1noc(CCCC(=O)N2CCN(c3ccc4c(c3)CN(C3CCC(=O)N(COC(=O)C(C)(C)C)C3=O)C4=O)CC2)n1` (stereo not drawn) [Compound 149, [3-[5-[4-[4-[3-[5-[(7-isopropylpyrazolo[1,5-a]pyrimidin-6-yl)carbamoylamino]-3-methyl-2-pyridyl]-1,2,4-oxadiazol-5-yl]butanoyl]piperazin-1-yl]-1-oxo-isoindolin-2-yl]-2,6-dioxo-1-piperidyl]methyl 2,2-dimethylpropanoate], the EC50 is ≤ 0.2 µM. As for `Cc1cc(NC(=O)Nc2cnc3ccnn3c2C(C)(C)C)cnc1-c1noc(CCCCCN2CCN(c3ccc4c(c3)CN(C3CCC(=O)NC3=O)C4=O)CC2)n1` (stereo not drawn) [Compound 150, 1-(7-tert-butylpyrazolo[1,5-a]pyrimidin-6-yl)-3-[6-[5-[5-[4-[2-(2,6-dioxo-3-piperidyl)-1-oxo-isoindolin-5-yl]piperazin-1-yl]pentyl]-1,2,4-oxadiazol-3-yl]-5-methyl-3-pyridyl]urea], the EC50 lay within 1 to 5 µM. As to `O=C1CCC(N2Cc3cc(N4CCN(C(=O)CCCCn5cc(NC(=O)Nc6cnc7ccnn7c6C6CCCC6)c(C(F)(F)F)n5)CC4)ccc3C2=O)C(=O)N1` (stereo not drawn) [Compound 151, 1-(7-cyclopentylpyrazolo[1,5-a]pyrimidin-6-yl)-3-[1-[5-[4-[2-(2,6-dioxo-3-piperidyl)-1-oxo-isoindolin-5-yl]piperazin-1-yl]-5-oxo-pentyl]-3-(trifluoromethyl)pyrazol-4-yl]urea], the EC50 is 1 to 5 µM.

As for `O=C1CCC(N2Cc3cc(N4CCN(C(=O)CCCCn5cc(NC(=O)Nc6cnc7ccnn7c6C6CCC6)c(C(F)(F)F)n5)CC4)ccc3C2=O)C(=O)N1` (stereo not drawn) [Compound 152, 1-(7-cyclobutylpyrazolo[1,5-a]pyrimidin-6-yl)-3-[1-[5-[4-[2-(2,6-dioxo-3-piperidyl)-1-oxo-isoindolin-5-yl]piperazin-1-yl]-5-oxo-pentyl]-3-(trifluoromethyl)pyrazol-4-yl]urea], the EC50 fell in the range of 1 to 5 µM. Take `Cc1cc(NC(=O)Nc2cnc3ccnn3c2C(C)C)cnc1-c1nnc(CCCCCC(=O)N2CCN(c3ccc4c(c3)CN(C3CCC(=O)NC3=O)C4=O)CC2)s1` (stereo not drawn) [Compound 153, 1-[6-[5-[6-[4-[2-(2,6-dioxo-3-piperidyl)-1-oxo-isoindolin-5-yl]piperazin-1-yl]-6-oxo-hexyl]-1,3,4-thiadiazol-2-yl]-5-methyl-3-pyridyl]-3-(7-isopropylpyrazolo[1,5-a]pyrimidin-6-yl)urea]: the EC50 is 0.2 to 0.5 µM. On to `Cc1cc(NC(=O)Nc2cnc3ccnn3c2C(C)C)cnc1-c1nnc(CCCCC(=O)N2CCN(c3ccc4c(c3)CN(C3CCC(=O)NC3=O)C4=O)CC2)s1` (stereo not drawn) [Compound 154, 1-[6-[5-[5-[4-[2-(2,6-dioxo-3-piperidyl)-1-oxo-isoindolin-5-yl]piperazin-1-yl]-5-oxo-pentyl]-1,3,4-thiadiazol-2-yl]-5-methyl-3-pyridyl]-3-(7-isopropylpyrazolo[1,5-a]pyrimidin-6-yl)urea], for which the EC50 is 0.2 to 0.5 µM. With `O=C1CCC(N2Cc3cc(N4CCN(C(=O)CCCCn5cc(NC(=O)Nc6cnc7ccnn7c6C6CCCO6)c(C(F)(F)F)n5)CC4)ccc3C2=O)C(=O)N1` (stereo not drawn) [Compound 155, 1-[1-[5-[4-[2-(2,6-dioxo-3-piperidyl)-1-oxo-isoindolin-5-yl]piperazin-1-yl]-5-oxo-pentyl]-3-(trifluoromethyl)pyrazol-4-yl]-3-(7-tetrahydrofuran-2-ylpyrazolo[1,5-a]pyrimidin-6-yl)urea] the figure was > 5 µM; with `O=C1CCC(N2Cc3cc(N4CCN(CCCCCn5cc(NC(=O)Nc6cnc7ccnn7c6C6CCC6)c(C(F)(F)F)n5)CC4)ccc3C2=O)C(=O)N1` (stereo not drawn) [Compound 156, 1-(7-cyclobutylpyrazolo[1,5-a]pyrimidin-6-yl)-3-[1-[5-[4-[2-(2,6-dioxo-3-piperidyl)-1-oxo-isoindolin-5-yl]piperazin-1-yl]pentyl]-3-(trifluoromethyl)pyrazol-4-yl]urea], > 5 µM.

The values above are taken from US20250163066A1, “PROTACs of MALT1” (TEGID THERAPEUTICS, INC., priority 2022, published 2025).
